Laboratory results from patent publication US20160215111A1, “MATERIALS AND METHODS” (THE UNIVERSITY OF SYDNEY, priority 2013, published 2016).

Key:
Human dermal fibroblasts [1] = assay: Cell morphology / spreading and patterned cell distribution by phase contrast microscopy; assay type: cell-based
Procedure: PFTE and polystyrene were obtained from Goodfellow. PEEK was sourced from Vitrex. Peptide 36 ([…]) and peptide 36 short ([…]) were synthesized by Auspep. Recombinant human tropoelastin corresponding to amino acid residues 27-724 of GenBank entry AAC98394 (gi 182020) was expressed and purified as previously described. Human dermal fibroblasts were cultured in a humidified 5% CO2 atmosphere in DMEM (Invitrogen) supplemented with 10% (v/v) fetal calf serum (Invitrogen), and passaged 1 in 10 every 3-4 days. Unless stated otherwise all other reagents were purchased from Sigma.
Samples were contact or shadow masked during PIII treatment by layering 3 mm wide low contact ADH kapton tape (contact mask) (Associated Gaskets, Australia) or a 130 μm stainless steel plate (shadow mask) (Mastercut Technologies, Australia) over the sample during PIII treatment. The masks were removed immediately after treatment.
Samples were peptide 36 coated, BSA blocked and cell seeded as for cell attachment. After incubation for 90 min the cells were fixed with the addition of 37% (w/v) formaldehyde directly to the cell media to achieve a final concentration of 3% (w/v) for 20 min. For opaque samples the cells were crystal violet stained as for cell attachment. The cell morphology was then observed by phase contrast microscopy.

Human dermal fibroblasts [2] = assay: Cell attachment of human dermal fibroblasts to peptide coated polymer samples (crystal violet); assay type: cell-based; conditions: for % cell attachment / maximal % cell attachment: BSA blocked; for cell binding activity after dry autoclaving / cell binding activity after heating: coated at pH 10, 0 mM NaCl; for cell binding activity after dry autoclaving: 120° C., 20 min (FIG. 10); for maximal % cell attachment: coating concentration 50 μM
Procedure: PFTE and polystyrene were obtained from Goodfellow. PEEK was sourced from Vitrex. […] Human dermal fibroblasts were cultured in a humidified 5% CO2 atmosphere in DMEM (Invitrogen) supplemented with 10% (v/v) fetal calf serum (Invitrogen), and passaged 1 in 10 every 3-4 days. Unless stated otherwise all other reagents were purchased from Sigma.
Where stated samples were incubated in 2% Tween-20 for 10 min at 70° C. then washed with PBS. Where stated non-specific cell binding was prevented with incubation in 10 mg/ml heat denatured (80° C./10 min) BSA for 1 hour at room temperature. Confluent 75 cm^2 flasks of cells were harvested by trypsinization, and the cell density adjusted to 5×10^5 cells/ml in serum free DMEM. The cells were added to the samples for 60 min at 37° C., 5% CO2 then non-adherent cells were removed with 2×1 PBS washes. Adherent cells were fixed with the addition of 5% glutaraldehyde (w/v) in PBS for 20 min. The samples were washed 3×PBS, and then the cells were stained with 0.1% (w/v) crystal violet in 0.2M MES pH 5.0 for 1 h at room temperature. After washing extensively with dH2O the samples were transferred to fresh tissue culture plates and the crystal violet was solubilised in 10% (v/v) acetic acid. The absorbance was measured at 570 nm using a plate reader. The absorbance was converted to % cell attachment using the equation of a linear regression fit of standard known cell number controls.
Samples were peptide coated as for cell attachment analysis then washed 3× with PBS. […] The samples were then autoclaved at 120° C., 100 kPa above atmospheric pressure with steam for 20 min. For slow cooled samples the temperature of the autoclave returned to room temperature over a period of 4 hours. The other samples were removed once the autoclave reached 70° C. and were immediately immersed in room temperature PBS. All samples were washed 3× with PBS prior to measuring cell attachment.

[3] = test system: rabbit polyclonal antibody with specificity against the C-terminal RKRK motif of tropoelastin; assay: C-terminal ELISA detection of RKRK exposure; assay type: binding; conditions: for C-terminal ELISA detection: tissue culture plastic, increasing coating concentration (FIG. 13)
Source text: Rabbit polyclonal antibodies against exon 36 were raised by Biomatik. A peptide corresponding to exon 36 ([…]) conjugated to Keyhole Limpet Hemocyanin was used to immunize New Zealand rabbits. Exon 36 specific antibodies were purified from the resulting immune serum by affinity chromatography using the immunogen peptide. […] Therefore this protocol produced a rabbit polyclonal antibody with specificity against the C-terminal RKRK motif of tropoelastin.
Untreated or PIII treated polystyrene was incubated in peptide 36 containing buffer (10 mM PO4, 150 mM NaCl) of increasing pH for 1 hour at room temperature. After peptide immobilization the samples were washed 3× with PBS to remove non-bound peptide. Background antibody binding was blocked with 3% (w/v) BSA for 1 hour at room temperature. The primary rabbit-anti-C-terminal antibody was diluted to 1:5000 and added to the samples for 1 hour at room temperature. Non-bound antibody was removed with 3×PBS washes then detected with 1:10,000 diluted goat anti-rabbit whole IgG-HRP conjugated secondary antibody for 1 hour at room temperature. The secondary antibody was removed, the samples washed 3×PBS washes and then transferred to fresh tissue culture plates. ABTS solution (40 mM ABTS, 0.1 mM NaOAc, 0.05M NaH2PO4, 0.01% H2O2, pH 5) was added for 30 min and the absorbance read at 405 nm.

[4] = tape or shadow masked PIII treated polymer (polystyrene, PTFE; FIG. 4)
[5] = untreated polystyrene (FIG. 3C)
[6] = PIII treated polystyrene (FIG. 3A, B)
[7] = post PIII allylamine vapor treated PTFE (30 min exposure), versus PIII treated PTFE (FIG. 6B)
[8] = untreated polystyrene (FIG. 3A, B)

For “ACLGKACG [ΔRKRK peptide 36, peptide 36 where the RKRK motif was deleted]”, the cell spreading (Human dermal fibroblasts [1]; PIII treated polystyrene (FIG. 3C)) was “did not elicit cell spreading”, the patterned cell distribution (Human dermal fibroblasts [1]; [4]) was “absence of cell attachment and spreading” and the cell spreading (Human dermal fibroblasts [1]; [5]) was “did not elicit cell spreading”. The cell binding activity (Human dermal fibroblasts [2]; PIII treated PTFE (FIG. 6B)) was “low levels of cell binding activity”, the cell attachment (Human dermal fibroblasts [2]; [6]) was “did not support cell binding” and the cell binding activity (Human dermal fibroblasts [2]; [7]) was “low levels of cell binding activity”. For the same sequence, the cell binding activity (Human dermal fibroblasts [2]; untreated PTFE (FIG. 6B)) was “low levels of cell binding activity”, the cell attachment (Human dermal fibroblasts [2]; [8]) was “did not support cell binding” and the “C-terminal ELISA detection” value [3] was “not capable of detecting”.
ACLGKACGRKRK [peptide 36] was tested, and the patterned cell distribution (Human dermal fibroblasts [1]; tape masked PIII treated PTFE, association buffer pH 7.4, 150 mM NaCl (FIG. 11)) was “retained selectively by peptide 36 on the untreated regions”, the patterned cell distribution (Human dermal fibroblasts [1]; tape masked PIII treated PTFE, association buffer pH 10, 0 mM NaCl (FIG. 11)) was “cell binding on both the untreated and PIII treated sections” and the patterned cell distribution (Human dermal fibroblasts [1]; tape masked PIII treated PTFE, washed with 2% Tween-20 or 5% SDS in pH 10, 0 mM NaCl at 70° C., gradual cooling (FIG. 11)) was “cell attachment exclusively in the PIII treated regions”. The patterned cell distribution (Human dermal fibroblasts [1]; [4]) was “clearly restricted to the untreated regions”, the “cell spreading after Tween-20 washing” value (Human dermal fibroblasts [1]; untreated polymer, Tween-20 washed) was “removed peptide 36 dependent cell spreading activity” and the cell spreading (Human dermal fibroblasts [1]; [5]) was “phase dark and flattened”. The “% cell attachment” value (Human dermal fibroblasts [2]; 800 second PIII treated PTFE) was 4.3±1.8%, the cell binding activity (Human dermal fibroblasts [2]; PIII treated PTFE (FIG. 6B)) was “low levels” and the cell binding activity (Human dermal fibroblasts [2]; PIII treated PTFE and PEEK, pH 6 association buffer (FIG. 7C, D)) was “low levels of cell binding activity”. For the same sequence, the cell binding activity (Human dermal fibroblasts [2]; PIII treated PTFE and PEEK, pH 10 association buffer (FIG. 7C, D)) was “high levels of cell binding activity”, the “cell binding activity after dry autoclaving” value (Human dermal fibroblasts [2]; PIII treated PTFE) was “not cell adhesive” and the “cell binding activity after heating” value (Human dermal fibroblasts [2]; PIII treated PTFE, incubations of 70° C. and above (FIG. 9)) was “baseline levels of cell binding”. The “cell binding activity after liquid autoclaving” value (Human dermal fibroblasts [2]; PIII treated PTFE, pH 6, 150 mM NaCl autoclave liquid (FIG. 10A)) was “reduced to background levels”, the “cell binding activity after liquid autoclaving” value (Human dermal fibroblasts [2]; PIII treated PTFE, pH 10, 0 mM NaCl autoclave liquid, gradual cooling to room temperature (FIG. 10C)) was “comparable peptide 36-cell binding activity to the no-autoclave control” and the “cell binding activity after liquid autoclaving” value (Human dermal fibroblasts [2]; PIII treated PTFE, pH 10, 0 mM NaCl autoclave liquid, rapid cooling (FIG. 10B)) was “partial peptide 36-cell binding activity was retained”. The cell attachment (Human dermal fibroblasts [2]; [6]) was “not cell adhesive”, the cell binding activity (Human dermal fibroblasts [2]; PIII treated polystyrene, association buffer pH 10, 150 mM NaCl (FIG. 7B)) was “maximal cell binding activity” and the cell binding activity (Human dermal fibroblasts [2]; PIII treated polystyrene, association buffers of up to pH 8, 150 mM NaCl (FIG. 7B)) was “low levels of cell biding activity”. For the same sequence, the “maximal % cell attachment” value (Human dermal fibroblasts [2]; PIII treated polystyrene) was 5.1±0.5%, the cell binding activity (Human dermal fibroblasts [2]; PIII treated surface, 150 mM NaCl association buffer, pH 7.4 (FIG. 7A)) was “background levels of binding” and the cell binding activity (Human dermal fibroblasts [2]; PIII treated surface, low ionic strength association buffer, pH 7.4 (FIG. 7A)) was “high levels of peptide 36-cell binding activity”. For the same sequence, the “peptide dependent cell attachment” value (Human dermal fibroblasts [2]; PTFE, 160 seconds of N2 plasma treatment) was “background levels”, the “% cell attachment” value (Human dermal fibroblasts [2]; PTFE, N2 plasma treatments up to 20 seconds before coating) was 99.3-106.9% and the cell binding activity (Human dermal fibroblasts [2]; [7]) was “far greater levels of cell binding activity”. For the same sequence, the cell binding activity (Human dermal fibroblasts [2]; untreated PTFE (FIG. 6B)) was “high levels of cell binding”, the “cell binding activity after dry autoclaving” value (Human dermal fibroblasts [2]; untreated PTFE) was “retained” and the “cell binding activity after heating” value (Human dermal fibroblasts [2]; untreated PTFE, heated above 40° C. (FIG. 9)) was “not altered”. The “cell binding activity after liquid autoclaving” value (Human dermal fibroblasts [2]; untreated PTFE, regardless of the liquid buffer conditions (FIG. 10)) was “lost”, the “cell binding activity after heating” value (Human dermal fibroblasts [2]; untreated and PIII treated PTFE, heated 10 min up to 40° C. in pH 7.4, 150 mM NaCl (FIG. 9)) was “remained cell adhesive” and the “cell binding activity without autoclaving” value (Human dermal fibroblasts [2]; untreated and PIII treated PTFE, coated in pH 10, 0 mM NaCl buffer (FIG. 10)) was “cell adhesive on both untreated and PIII treated PTFE”. The cell attachment (Human dermal fibroblasts [2]; [8]) was “high levels of cell adhesion”, the “cell attachment after Tween-20 washing” value (Human dermal fibroblasts [2]; untreated polystyrene, Tween-20 washed) was “background levels” and the cell binding activity (Human dermal fibroblasts [2]; untreated polystyrene, 50 μM peptide, 10 mM PO4 pH 7.4, independent of NaCl content of association buffer (FIG. 7A)) was “high levels of cell-binding activity”. The “maximal % cell attachment” value (Human dermal fibroblasts [2]; untreated polystyrene) was 98.6±12.5%, the cell binding activity (Human dermal fibroblasts [2]; untreated polystyrene, insensitive to pH of association buffer, 150 mM NaCl (FIG. 7B)) was “high levels of cell binding activity” and the “C-terminal ELISA detection of RKRK exposure” value ([3]; PIII treated polystyrene, association buffers with pH up to 8 (FIG. 8B)) was “low levels of peptide 36 RKRK exposure”. The “C-terminal ELISA detection of RKRK exposure” value ([3]; PIII treated polystyrene, coating concentrations up to 50 μM, 10 mM PO4, 150 mM NaCl, pH 7.4 (FIG. 8A)) was “little RKRK-dependent antibody detection”, the “C-terminal ELISA detection of RKRK exposure” value ([3]; PIII treated polystyrene, pH 10 association buffer, compared with untreated polystyrene (FIG. 8B)) was “not statistically different to those obtained on untreated polystyrene” and the “C-terminal ELISA detection” value [3] was “detected”. The “C-terminal ELISA detection of RKRK exposure” value ([3]; untreated polystyrene, 50 μM peptide, association buffer of increasing pH (FIG. 8B)) was “detected peptide 36 across the entire range of pH” and the “C-terminal ELISA detection of RKRK exposure” value ([3]; untreated polystyrene, 10 mM PO4, 150 mM NaCl, pH 7.4, increase up to 10 μM coating, none further at 50 μM (FIG. 8A)) was “detected peptide 36 bound to the surface in a coating concentration dependent manner”.
